tested on: IL-6 production in rat adjuvant arthritis model; assay: IL-6 production inhibition test in rat adjuvant arthritis model; assay type: in vivo, LEW rats; conditions: single dose, administration of 3 mg/kg, left ankle, read-out: rate of inhibition of IL-6 production
Description: IL-6 Production Inhibition Test in Rat Adjuvant Arthritis Model
A single-dose drug efficacy test using rat adjuvant arthritis models was carried out by modifying the method of Magari. K et al. (J. Rheumatol. 30 (10), 2193 (2003)).
LEW rats (female, supplied by Charles River Laboratories Japan, Inc.) were used as laboratory animals. An adjuvant prepared from heat-killed bacteria of Mycobacterium butyricum (264010 manufactured by Difco Laboratories Ltd.) and liquid paraffin (manufactured by Wako Pure Chemical Industries, Ltd., Code No. 128-04375) was subcutaneously administered as a phlogogenic material to the right hind leg footpads of the rats under inhalation anesthesia with isoflurane (manufactured by Wako Pure Chemical Industries, Ltd., Code No. 099-06571) to prepare arthritis models. Approximately 2 weeks later, left paw edema was measured with a paw volume meter (model TK-101CMP manufactured by Unicorn Co., Ltd.), and grouping was performed such that the average volume of left paw edema was equal among groups. A test compound or only a solvent was administered, after a certain time, they were sacrificed by exsanguination from the abdomens under isoflurane anesthesia, and the left ankles were collected, chopped, and frozen by using liquid nitrogen. The collected left ankle portions were disrupted in CRYOPress (model CP-100WP manufactured by Microtec Co., Ltd.), then supplemented with a buffer solution, shaken overnight at 4° C., and then centrifuged to collected a supernatant. The preparation of the buffer solution was performed by mixing a Tris buffer solution (pH 7.4), sodium chloride (NaCl), phenyl methyl sulfonyl fluoride (PMSF), Triton X-100, EDTA-free complete tablets (manufactured by F. Hoffmann-La Roche, Ltd., REF. 11 873 580 001), and Otsuka distilled water (manufactured by Otsuka Pharmaceutical Co., Ltd., product No. 1323). IL-6 in the collected supernatant was measured by using a sandwich ELISA kit (manufactured by R&D Systems, Inc., Catalog No. S6050).
The IL-6 content of each sample was calculated from the calibration curve of Standard IL-6 included in the kit. When the amount of IL-6 produced in the solvent administration control group was defined as 100%, the rate of inhibition of IL-6 production (%) at each dose of the test compound was calculated.

| SMILES | inhibition in vivo at 3 mg/kg |
| --- | --- |
| COC[C@@H](NC(=O)N1Cc2c(NC(=O)C3([Si](C)(C)C)CCC3)n[nH]c2C1(C)C)c1ccccc1 [IV-123, (S)—N-(2-Methoxy-1-phenylethyl)-6,6-dimethyl-3-[1-(trimethylsilyl)cyclobutanecarboxamido]-4,6-dihydropyrrolo[3,4-c]pyrazole-5(1H)-carboxamide] | ≥ 50% |
| CCOC[C@@H](NC(=O)N1Cc2c(NC(=O)C3([Si](C)(C)C)CCC3)n[nH]c2C1(C)C)c1ccccc1 [IV-139, (S)—N-(2-Ethoxy-1-phenylethyl)-6,6-dimethyl-3-[1-(trimethylsilyl)cyclobutanecarboxamido]-4,6-dihydropyrrolo[3,4-c]pyrazole-5(1H)-carboxamide] | ≥ 50% |
| CC1(C)c2[nH]nc(NC(=O)C3([Si](C)(C)C)CCC3)c2CN1C(=O)N[C@H](CCO)c1ccccc1 [IV-227, (R)—N-(3-Hydroxy-1-phenylpropyl)-6,6-dimethyl-3-[1-(trimethylsilyl)cyclobutanecarboxamido]-4,6-dihydropyrrolo[3,4-c]pyrazole-5(1H)-carboxamide] | ≥ 50% |
| CC(C)(O)C[C@@H](NC(=O)N1Cc2c(NC(=O)C3([Si](C)(C)C)CCC3)n[nH]c2C1(C)C)c1ccccc1 [IV-299, (R)—N-(3-Hydroxy-3-methyl-1-phenylbutyl)-6,6-dimethyl-3-[1-(trimethylsilyl)cyclobutanecarboxamido]-4,6-dihydropyrrolo[3,4-c]pyrazole-5(1H)-carboxamide] | ≥ 50% |
| CC1(C)c2[nH]nc(NC(=O)C3([Si](C)(C)C)CCC3)c2CN1C(=O)C(CO)c1ccccc1 (stereo not drawn) [IV-632, N-[5-(3-Hydroxy-2-phenylpropanoyl)-6,6-dimethyl-1,4,5,6-tetrahydropyrrolo[3,4-c]pyrazol-3-yl]-1-(trimethylsilyl)cyclobutanecarboxamide] | ≥ 50% |

same assay, conditions: single dose, administration of 10 mg/kg, left ankle, read-out: rate of inhibition of IL-6 production

| SMILES | inhibition in vivo at 10 mg/kg |
| --- | --- |
| CC1(C)c2[nH]nc(NC(=O)C(C)(C)[Si](C)(C)C)c2CN1C(=O)N[C@H](CO)c1ccccc1 [II-114, (S)—N-(2-Hydroxy-1-phenylethyl)-6,6-dimethyl-3-[2-methyl-2-(trimethylsilyl)propanamido]-4,6-dihydropyrrolo[3,4-c]pyrazole-5(1H)-carboxamide] | ≥ 50% |
| CC1(C)c2[nH]nc(NC(=O)C3([Si](C)(C)C)CCC3)c2CN1C(=O)O[C@H](CO)c1ccccc1 [IV-2, (S)-2-Hydroxy-1-phenylethyl 6,6-dimethyl-3-[1-(trimethylsilyl)cyclobutanecarboxamido]-4,6-dihydropyrrolo[3,4-c]pyrazole-5(1H)-carboxylate] | ≥ 50% |
| CN(C(=O)N1Cc2c(NC(=O)C3([Si](C)(C)C)CCC3)n[nH]c2C1(C)C)[C@H](CO)c1ccccc1 [IV-119, (S)—N-(2-Hydroxy-1-phenylethyl)-N,6,6-trimethyl-3-[1-(trimethylsilyl)cyclobutanecarboxamido]-4,6-dihydropyrrolo[3,4-c]pyrazole-5(1H)-carboxamide] | ≥ 50% |
| CC(C)(O)[C@@H](NC(=O)N1Cc2c(NC(=O)C3([Si](C)(C)C)CCC3)n[nH]c2C1(C)C)c1ccccc1 [IV-171, (S)—N-(2-Hydroxy-2-methyl-1-phenylpropyl)-6,6-dimethyl-3-[1-(trimethylsilyl)cyclobutanecarboxamido]-4,6-dihydropyrrolo[3,4-c]pyrazole-5(1H)-carboxamide] | ≥ 50% |
